As usually defined, the IC50 is the concentration that inhibits the measured activity by half. A high value points to lower potency. The term Dmax denotes the greatest extent of degradation seen.

For one test, the target named is BCL6 (Homo sapiens (Human), UniProt P41182). Nature of the test: Immunofluorescence high content imaging of BCL6 degradation in T47D cells.
Conditions: not given
It is filed as cell-based. In outline: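 BCL6 loss was quantified by high-content imaging (10×, 4 fields/well) after PFA fixation and anti-BCL6/Alexa-488 staining with Hoechst nuclear and CellMask counterstains. Compounds were applied for 3 days to T47D breast cancer cells in RPMI-10% FBS, 11 points, 3-fold steps, top 0.1 or 1 μM.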
Regarding `CNC(=O)COc1cc2cc(Nc3nc(N4CCC(CN5CCC(c6coc(C(=O)NC7CCC(=O)NC7=O)c6)CC5)CC4)ncc3Cl)ccc2n(C)c1=O` (centres unmarked) [compound 286, 4-[1-({1-[5-chloro-4-({1-methyl-3-[(methylcarbamoyl)methoxy]-2-oxo-1,2-dihydroquinolin-6-yl}amino)pyrimidin-2-yl]piperidin-4-yl}methyl)piperidin-4-yl]-N-(2,6-dioxopiperidin-3-yl)furan-2-carboxamide], the concentration for half-maximal inhibition (IC50) lay within 50 to 100 nM.

`CC(=O)COc1cc2cc(Nc3nc(N4CCOC(COc5ccc6c(c5)C(=O)N(C5CCC(=O)NC5=O)C6=O)C4)ncc3Cl)ccc2n(C)c1=O` (centres unmarked) [compound 179, 5-((4-(5-chloro-4-((1-methyl-2-oxo-3-(2-oxopropoxy)-1,2-dihydroquinolin-6-yl)amino)pyrimidin-2-yl)morpholin-2-yl)methoxy)-2-(2,6-dioxopiperidin-3-yl)isoindoline-1,3-dione]: the half-maximal inhibitory concentration (IC50) is at least 100 nM.

The test is the same for the next values; noted with them: T47D.
The molecule `CNC(=O)COc1cc2cc(Nc3nc(N4CCC(CN5CCC(c6coc(C(=O)NC7CCC(=O)NC7=O)c6)CC5)CC4)ncc3Cl)ccc2n(C)c1=O` (centres unmarked) [compound 286, 4-[1-({1-[5-chloro-4-({1-methyl-3-[(methylcarbamoyl)methoxy]-2-oxo-1,2-dihydroquinolin-6-yl}amino)pyrimidin-2-yl]piperidin-4-yl}methyl)piperidin-4-yl]-N-(2,6-dioxopiperidin-3-yl)furan-2-carboxamide] registered a Dmax below 50%.

Turning to `CC(=O)COc1cc2cc(Nc3nc(N4CCOC(COc5ccc6c(c5)C(=O)N(C5CCC(=O)NC5=O)C6=O)C4)ncc3Cl)ccc2n(C)c1=O` (centres unmarked) [compound 179, 5-((4-(5-chloro-4-((1-methyl-2-oxo-3-(2-oxopropoxy)-1,2-dihydroquinolin-6-yl)amino)pyrimidin-2-yl)morpholin-2-yl)methoxy)-2-(2,6-dioxopiperidin-3-yl)isoindoline-1,3-dione], the greatest degradation seen (Dmax) fell in the range of 50 to 70%.

Still in this test, the particulars now being: T47D cells.
`CCCCn1c(=O)c(OCC(=O)NC)cc2cc(Nc3nc(N4CCC[C@H](COc5cccc6c5C(=O)N(C5CCC(=O)NC5=O)C6=O)C4)ncc3Cl)ccc21` (stereo partly drawn) [compound 324, 2-{[1-butyl-6-({5-chloro-2-[(3S)-3-({[2-(2,6-dioxopiperidin-3-yl)-1,3-dioxo-2,3-dihydro-1H-isoindol-4-yl]oxy}methyl)piperidin-1-yl]pyrimidin-4-yl}amino)-2-oxo-1,2-dihydroquinolin-3-yl]oxy}-N-methylacetamide] had a maximal degradation (Dmax) of 50 to 70% and an IC50 below 10 nM.

Take `CNC(=O)COc1cc2cc(Nc3nc(N4CCO[C@H](COc5ccc(C(=O)NC6CCC(=O)NC6=O)c(OC)c5)C4)ncc3Cl)ccc2n(C(C)C)c1=O` (stereo partly drawn) [compound 351, 4-{[(2S)-4-[5-chloro-4-({3-[(methylcarbamoyl)methoxy]-2-oxo-1-(propan-2-yl)-1,2-dihydroquinolin-6-yl}amino)pyrimidin-2-yl]morpholin-2-yl]methoxy}-N-(2,6-dioxopiperidin-3-yl)-2-methoxybenzamide]: the maximal degradation (Dmax) was below 50% and the 50% inhibitory concentration (IC50) was 10 to 50 nM.

On to `CNC(=O)COc1cc2cc(Nc3nc(N4CCN(CC5CCN(c6cccc(C(=O)NC7CCC(=O)NC7=O)[n+]6[O-])CC5)CC4)ncc3Cl)ccc2n(C(C)C)c1=O` (centres unmarked) [compound 397, 2-[4-({4-[5-chloro-4-({3-[(methylcarbamoyl)methoxy]-2-oxo-1-(propan-2-yl)-1,2-dihydroquinolin-6-yl}amino)pyrimidin-2-yl]piperazin-1-yl}methyl)piperidin-1-yl]-6-[(2,6-dioxopiperidin-3-yl)carbamoyl]pyridin-1-ium-1-olate], for which the maximal degradation (Dmax) was below 50% and the concentration for half-maximal inhibition (IC50) is 10 to 50 nM.

Turning to `CNC(=O)COc1cc2cc(Nc3nc(N4CCN(C(C)(C)C5CCN(c6cccc(C(=O)NC7CCC(=O)NC7=O)[n+]6[O-])CC5)CC4)ncc3Cl)ccc2n(C)c1=O` (centres unmarked) [compound 396, 2-[4-(2-{4-[5-chloro-4-({1-methyl-3-[(methylcarbamoyl)methoxy]-2-oxo-1,2-dihydroquinolin-6-yl}amino)pyrimidin-2-yl]piperazin-1-yl}propan-2-yl)piperidin-1-yl]-6-[(2,6-dioxopiperidin-3-yl)carbamoyl]pyridin-1-ium-1-olate], the Dmax was below 50% and the half-inhibitory concentration (IC50) was in the range of 10 to 50 nM.

Molecule `CCn1c(=O)c(OCC(=O)NC)cc2cc(Nc3nc(N4CCC(CN5CC(C6CN(c7ccc8c(c7)C(=O)N(C7CCC(=O)NC7=O)C8=O)C6)C5)CC4)ncc3Cl)ccc21` (centres unmarked) [compound 316, 2-{[6-({5-chloro-2-[4-({1′-[2-(2,6-dioxopiperidin-3-yl)-1,3-dioxo-2,3-dihydro-1H-isoindol-5-yl]-[3,3′-biazetidin]-1-yl}methyl)piperidin-1-yl]pyrimidin-4-yl}amino)-1-ethyl-2-oxo-1,2-dihydroquinolin-3-yl]oxy}-N-methylacetamide] registered a Dmax of 50 to 70% and a half-inhibitory concentration (IC50) below 10 nM.

In the case of `CNC(=O)COc1cc2cc(Nc3nc(N4CCN(C(C)(C)C5CCN(c6cc(OC)cc(C(=O)NC7CCC(=O)NC7=O)c6F)CC5)CC4)ncc3Cl)ccc2n(C)c1=O` (centres unmarked) [compound 356, 3-[4-(2-{4-[5-chloro-4-({1-methyl-3-[(methylcarbamoyl)methoxy]-2-oxo-1,2-dihydroquinolin-6-yl}amino)pyrimidin-2-yl]piperazin-1-yl}propan-2-yl)piperidin-1-yl]-N-(2,6-dioxopiperidin-3-yl)-2-fluoro-5-methoxybenzamide], the Dmax was at least 70% and the concentration for half-maximal inhibition (IC50) is below 10 nM.

`CCN(C1CCN(c2ccc3c(c2)C(=O)N(C2CCC(=O)NC2=O)C3=O)CC1)C1CCN(c2ncc(Cl)c(Nc3ccc4c(c3)cc(OCC(=O)NC)c(=O)n4C)n2)CC1` (centres unmarked) [compound 326, 2-{[6-({5-chloro-2-[4-({1-[2-(2,6-dioxopiperidin-3-yl)-1,3-dioxo-2,3-dihydro-1H-isoindol-5-yl]piperidin-4-yl}(ethyl)amino)piperidin-1-yl]pyrimidin-4-yl}amino)-1-methyl-2-oxo-1,2-dihydroquinolin-3-yl]oxy}-N-methylacetamide]: the Dmax fell in the range of 50 to 70% and the IC50 is 10 to 50 nM.

For `CCOc1cc(N2CCC(CN3CCN(c4ncc(Cl)c(Nc5ccc6c(c5)cc(OCC(=O)NC)c(=O)n6C)n4)CC3)CC2)ccc1C(=O)NC1CCC(=O)NC1=O` (centres unmarked) [compound 344, 4-[4-({4-[5-chloro-4-({1-methyl-3-[(methylcarbamoyl)methoxy]-2-oxo-1,2-dihydroquinolin-6-yl}amino)pyrimidin-2-yl]piperazin-1-yl}methyl)piperidin-1-yl]-N-(2,6-dioxopiperidin-3-yl)-2-ethoxybenzamide], the maximal degradation (Dmax) is below 50% and the half-inhibitory concentration (IC50) was below 10 nM.

For `CNC(=O)COc1cc2cc(Nc3nc(N4CCC5(CC4)CN(CC4CCN(c6ccc7c(c6)C(=O)N(C6CCC(=O)NC6=O)C7=O)CC4)C5)ncc3Cl)ccc2n(C(C)C)c1=O` (centres unmarked) [compound 384], the Dmax was at least 70% and the IC50 is below 10 nM.

In turn, `CCn1c(=O)c(OCC(=O)NC)cc2cc(Nc3nc(N4CCN([C@@H]5C[C@@H](COc6ccc7c(c6)C(=O)N(C6CCC(=O)NC6=O)C7=O)N(C)C5)CC4)ncc3Cl)ccc21` (stereo partly drawn) [compound 357, 2-({6-[(5-chloro-2-{4-[(3R,5S)-5-({[2-(2,6-dioxopiperidin-3-yl)-1,3-dioxo-2,3-dihydro-1H-isoindol-5-yl]oxy}methyl)-1-methylpyrrolidin-3-yl]piperazin-1-yl}pyrimidin-4-yl)amino]-1-ethyl-2-oxo-1,2-dihydroquinolin-3-yl}oxy)-N-methylacetamide] had a maximal degradation (Dmax) below 50% and an IC50 of 50 to 100 nM.

The test is the same for the next values; noted with them: class symbols A-D, read-out: EC50 (nM)*.
On to `CNC(=O)COc1cc2cc(Nc3nc(N4CCC(c5cn(CCOCCOCC(=O)N[C@H](C(=O)N6C[C@H](O)C[C@H]6C(=O)N[C@@H](C)c6ccc(-c7scnc7C)cc6)C(C)(C)C)nn5)CC4)ncc3Cl)ccc2n(C)c1=O` [compound 115, (2S,4R)-1-((S)-2-(2-(2-(2-(4-(1-(5-chloro-4-((1-methyl-3-(2-(methylamino)-2-oxoethoxy)-2-oxo-1,2-dihydroquinolin-6-yl)amino)pyrimidin-2-yl)piperidin-4-yl)-1H-1,2,3-triazol-1-yl)ethoxy)ethoxy)acetamido)-3,3-dimethylbutanoyl)-4-hydroxy-N-((S)-1-(4-(4-methylthiazol-5-yl)phenyl)ethyl)pyrrolidine-2-carboxamide], for which the DC50 was 10 to 50 nM.

`CNC(=O)COc1cc2cc(Nc3nc(N4CCC(Cc5cn(CCOCCOCCOCCOCCOCC(=O)N[C@H](C(=O)N6C[C@H](O)C[C@H]6C(=O)N[C@@H](C)c6ccc(-c7scnc7C)cc6)C(C)(C)C)nn5)CC4)ncc3Cl)ccc2n(C)c1=O` [compound 124, (2S,4R)-1-((S)-2-(tert-butyl)-20-(4-((1-(5-chloro-4-((1-methyl-3-(2-(methylamino)-2-oxoethoxy)-2-oxo-1,2-dihydroquinolin-6-yl)amino)pyrimidin-2-yl)piperidin-4-yl)methyl)-1H-1,2,3-triazol-1-yl)-4-oxo-6,9,12,15,18-pentaoxa-3-azaicosanoyl)-4-hydroxy-N-((S)-1-(4-(4-methylthiazol-5-yl)phenyl)ethyl)pyrrolidine-2-carboxamide]: the DC50 was 50 to 100 nM.

`CNC(=O)COc1cc2cc(Nc3nc(N4CCC(OCCOCCNc5cccc6c5C(=O)N(C5CCC(=O)NC5=O)C6=O)CC4)ncc3Cl)ccc2n(C)c1=O` (centres unmarked) [compound 75, 2-((6-((5-chloro-2-(4-(2-(2-((2-(2,6-dioxopiperidin-3-yl)-1,3-dioxoisoindolin-4-yl)amino)ethoxy)ethoxy)piperidin-1-yl)pyrimidin-4-yl)amino)-1-methyl-2-oxo-1,2-dihydroquinolin-3-yl)oxy)-N-methylacetamide]: the DC50 fell in the range of 50 to 100 nM.

As to `CNC(=O)COc1cc2cc(Nc3nc(N4CCC(c5ccccc5OCCCOCCOCCOCCOc5ccc6c(c5)CN(C5CCC(=O)NC5=O)C6=O)CC4)ncc3Cl)ccc2n(C)c1=O` (centres unmarked) [compound 90, 2-((6-((5-chloro-2-(4-(2-(3-(2-(2-(2-((2-(2,6-dioxopiperidin-3-yl)-1-oxoisoindolin-5-yl)oxy)ethoxy)ethoxy)ethoxy)propoxy)phenyl)piperidin-1-yl)pyrimidin-4-yl)amino)-1-methyl-2-oxo-1,2-dihydroquinolin-3-yl)oxy)-N-methylacetamide], the DC50 was above 100 nM.

As for `CNC(=O)COc1cc2cc(Nc3nc(N4CCC(c5cn(CCOCCOCCOCC(=O)N[C@H](C(=O)N6C[C@H](O)C[C@H]6C(=O)N[C@@H](C)c6ccc(-c7scnc7C)cc6)C(C)(C)C)nn5)CC4)ncc3Cl)ccc2n(C)c1=O` [compound 116, (2S,4R)-1-((S)-2-(tert-butyl)-14-(4-(1-(5-chloro-4-((1-methyl-3-(2-(methylamino)-2-oxoethoxy)-2-oxo-1,2-dihydroquinolin-6-yl)amino)pyrimidin-2-yl)piperidin-4-yl)-1H-1,2,3-triazol-1-yl)-4-oxo-6,9,12-trioxa-3-azatetradecanoyl)-4-hydroxy-N-((S)-1-(4-(4-methylthiazol-5-yl)phenyl)ethyl) pyrrolidine-2-carboxamide], the DC50 was in the range of 10 to 50 nM.

(Values after patent US12310975B2, “Modulators of BCL6 proteolysis and associated methods of use” (Arvinas Operations, Inc., priority 2019, dated 2025).)
